# Results as given in ChEMBL document CHEMBL1201862, “PubChem BioAssay data set” (2004).
# Active and inactive are the calls of the source.
# What was measured:
# [1] = Luminescence Cell-Based Dose Retest to Confirm Inhibitors of Cancer Stem Cells. [Related pubchem assays (depositor defined):AID2717, AID2721]; format: functional; settings: Homo sapiens
# Streptokinase A = biological target: T1, Streptokinase A (Streptococcus pyogenes serotype M1, UniProt P10520); experiment: S. pyogenes streptokinase expression inhibitors, potency, dose response, plasminogen activation absorbance, OD405 (AID 1914); format: functional, Streptococcus pyogenes M1 GAS;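 note: secreted streptokinase activity via plasminogen activation per viability signal from cell pellet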
# T1 sequence (P10520 whole entry): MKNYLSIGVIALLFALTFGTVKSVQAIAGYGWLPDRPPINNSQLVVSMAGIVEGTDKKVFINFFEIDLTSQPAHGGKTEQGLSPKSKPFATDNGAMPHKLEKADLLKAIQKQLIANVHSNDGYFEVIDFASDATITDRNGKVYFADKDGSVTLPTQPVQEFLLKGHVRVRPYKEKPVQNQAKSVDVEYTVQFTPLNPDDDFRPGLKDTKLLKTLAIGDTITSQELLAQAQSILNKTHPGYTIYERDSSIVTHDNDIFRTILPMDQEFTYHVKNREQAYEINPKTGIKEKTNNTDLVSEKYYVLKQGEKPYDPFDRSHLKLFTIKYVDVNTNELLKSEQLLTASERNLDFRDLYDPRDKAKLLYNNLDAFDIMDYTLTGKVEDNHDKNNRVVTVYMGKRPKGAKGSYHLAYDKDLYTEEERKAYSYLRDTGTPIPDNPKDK
# [2] = inhibitors of SNCA 5'UTR-driven reporter translation, confirmation, H4 neuroglioma cells, luminescence (AID 1988); format: functional, cell-based
# [3] = inhibitors of firefly luciferase expression or activity, dose response, H4 neuroglioma cells, luminescence (AID 1990); format: functional, cell-based
# [4] = test system: Streptococcus sp. 'group A'; experiment: growth inhibition of control SK(-) GAS strain, dose response, counter-screen for streptokinase expression inhibitor project, luminescence, kanamycin, BacTiterGlo, confirmation (AID 1900); format: functional, organism-based
# [5] = Luminescence Cell-Based Dose Response HTS to Identify Inhibitors of 5'UTR Stem-Loop Driven Prion Protein mRNA Translation in H4 Neuroglioblastoma Cells. [Related pubchem assays: 1827 (Project Summary), 1813 (Primary HTS)]; format: functional
# Streptococcus = experiment: Group A Streptococcus viability loss, dose response, counter-screen for streptokinase expression inhibitor project, luminescence, BacTiterGlo (AID 1915); format: functional, organism-based;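 note: potency for reduction of bacterial viability or growth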
# Cytochrome P450 2D6 = Cytochrome P450 2D6 (Homo sapiens, UniProt P10635);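 note: CYP2D6 member of a cytochrome P450 panel assay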
# Sequence of Cytochrome P450 2D6 (P10635 whole entry): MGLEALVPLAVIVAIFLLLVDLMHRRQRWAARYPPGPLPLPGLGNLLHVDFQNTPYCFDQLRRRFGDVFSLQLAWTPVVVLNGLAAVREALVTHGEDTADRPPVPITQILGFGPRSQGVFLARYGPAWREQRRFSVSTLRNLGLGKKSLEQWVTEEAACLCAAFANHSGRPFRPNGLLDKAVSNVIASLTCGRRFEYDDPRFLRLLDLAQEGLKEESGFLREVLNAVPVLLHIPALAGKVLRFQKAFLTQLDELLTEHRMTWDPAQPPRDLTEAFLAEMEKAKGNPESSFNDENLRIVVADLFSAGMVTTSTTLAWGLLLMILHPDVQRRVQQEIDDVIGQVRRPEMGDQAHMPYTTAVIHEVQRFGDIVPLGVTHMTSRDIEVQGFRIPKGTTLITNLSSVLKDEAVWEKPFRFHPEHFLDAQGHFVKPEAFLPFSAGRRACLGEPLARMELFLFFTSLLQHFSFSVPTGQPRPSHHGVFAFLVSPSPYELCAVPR
# Cytochrome P450 2C9 = Cytochrome P450 2C9 (Homo sapiens, UniProt P11712)
# Sequence of Cytochrome P450 2C9 (P11712 whole entry): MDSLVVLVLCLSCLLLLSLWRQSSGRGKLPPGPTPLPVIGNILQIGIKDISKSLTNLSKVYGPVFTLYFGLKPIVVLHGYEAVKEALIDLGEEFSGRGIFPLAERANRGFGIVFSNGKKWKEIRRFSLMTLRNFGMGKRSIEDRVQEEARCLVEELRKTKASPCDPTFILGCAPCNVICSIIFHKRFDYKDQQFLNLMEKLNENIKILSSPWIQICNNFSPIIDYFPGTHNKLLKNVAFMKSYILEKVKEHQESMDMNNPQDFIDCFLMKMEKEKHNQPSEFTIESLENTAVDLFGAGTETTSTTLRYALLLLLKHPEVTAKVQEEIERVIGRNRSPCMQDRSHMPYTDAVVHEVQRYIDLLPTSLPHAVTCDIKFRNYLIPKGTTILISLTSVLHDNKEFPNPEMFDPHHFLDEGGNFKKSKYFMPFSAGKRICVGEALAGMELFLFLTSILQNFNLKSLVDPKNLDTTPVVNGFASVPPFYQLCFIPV
# Cytochrome P450 2C19 = Cytochrome P450 2C19 (Homo sapiens, UniProt P33261); experiment: Cytochrome panel assay with activity outcomes. Panel member name: p450-cyp2c19 Compounds with AC50 equal or less than 10 uM are considered active; format: functional; settings: read-out: AC50
# Sequence of Cytochrome P450 2C19 (P33261 whole entry): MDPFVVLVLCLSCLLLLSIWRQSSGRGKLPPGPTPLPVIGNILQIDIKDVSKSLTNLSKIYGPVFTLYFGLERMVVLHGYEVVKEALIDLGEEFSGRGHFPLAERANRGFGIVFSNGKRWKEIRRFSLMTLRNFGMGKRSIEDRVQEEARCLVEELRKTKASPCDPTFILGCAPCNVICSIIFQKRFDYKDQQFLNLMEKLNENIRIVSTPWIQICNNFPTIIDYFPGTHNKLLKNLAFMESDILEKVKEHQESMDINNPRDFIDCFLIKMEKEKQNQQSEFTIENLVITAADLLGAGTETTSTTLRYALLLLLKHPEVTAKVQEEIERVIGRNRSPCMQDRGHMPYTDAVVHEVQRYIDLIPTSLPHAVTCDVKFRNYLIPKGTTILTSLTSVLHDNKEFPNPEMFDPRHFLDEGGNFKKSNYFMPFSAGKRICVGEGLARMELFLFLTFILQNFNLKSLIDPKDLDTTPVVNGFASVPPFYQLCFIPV
# Cytochrome P450 1A2 = biological target: T2, Cytochrome P450 1A2 (Homo sapiens, UniProt P05177);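 note: PubChem cytochrome P450 panel assay, CYP1A2 panel member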
# T2 sequence (P05177 whole entry): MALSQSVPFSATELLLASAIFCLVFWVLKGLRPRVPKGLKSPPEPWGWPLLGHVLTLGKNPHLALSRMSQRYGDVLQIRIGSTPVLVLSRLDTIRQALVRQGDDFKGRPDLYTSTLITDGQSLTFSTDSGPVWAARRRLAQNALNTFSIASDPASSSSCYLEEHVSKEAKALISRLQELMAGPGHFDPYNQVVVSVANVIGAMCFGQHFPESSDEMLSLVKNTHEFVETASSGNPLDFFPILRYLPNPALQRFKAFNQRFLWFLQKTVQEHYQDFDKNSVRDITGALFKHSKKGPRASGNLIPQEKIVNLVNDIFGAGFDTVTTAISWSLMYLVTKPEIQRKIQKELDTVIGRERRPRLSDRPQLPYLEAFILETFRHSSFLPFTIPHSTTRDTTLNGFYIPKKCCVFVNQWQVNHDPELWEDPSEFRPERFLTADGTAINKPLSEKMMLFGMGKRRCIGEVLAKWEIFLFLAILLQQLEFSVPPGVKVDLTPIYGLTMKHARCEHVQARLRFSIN
# [6] = biological target: T3, Heat shock factor protein 1 (Mus musculus, UniProt P38532); experiment: inhibition of MG132-induced HSE-luciferase signal, confirmation, cell-based, NIH3T3, luminescence, dose retest (AID 2382); format: functional;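 note: NIH3T3 fibroblasts with HSF1-driven luciferase reporter stressed by proteasome inhibitor MG132; luminescence from HSF1-driven luciferase expression after 8 hours of MG132 stress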
# T3 sequence (P38532 whole entry): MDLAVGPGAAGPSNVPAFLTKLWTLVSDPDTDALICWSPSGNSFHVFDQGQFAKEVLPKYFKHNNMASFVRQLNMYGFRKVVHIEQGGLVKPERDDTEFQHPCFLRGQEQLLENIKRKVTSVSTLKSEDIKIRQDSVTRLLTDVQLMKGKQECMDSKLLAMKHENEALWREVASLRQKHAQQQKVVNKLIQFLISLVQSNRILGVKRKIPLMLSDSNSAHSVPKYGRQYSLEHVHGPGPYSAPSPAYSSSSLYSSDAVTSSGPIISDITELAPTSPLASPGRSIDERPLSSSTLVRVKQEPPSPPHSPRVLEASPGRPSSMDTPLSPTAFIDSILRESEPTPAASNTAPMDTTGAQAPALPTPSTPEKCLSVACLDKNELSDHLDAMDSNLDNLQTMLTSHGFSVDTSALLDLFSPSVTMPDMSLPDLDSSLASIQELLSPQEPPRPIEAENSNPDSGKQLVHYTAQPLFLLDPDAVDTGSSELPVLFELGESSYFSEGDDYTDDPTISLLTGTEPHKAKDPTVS
compound,measurement,setting,value
Cc1ccc(CNc2nc(-c3cccs3)nc3ccccc23)cc1,AC50,[1],7 µM (active)
CCCc1nc(NCc2ccccc2)c(C#N)c2c1CCCC2,EC50,Streptokinase A,3.06 µM (active)
same,EC50,[2],> 120 µM (not active)
same,EC50,[3],> 120 µM (not active)
same,EC50,[4],14.9 µM (active)
same,EC50,[5],> 120 µM (not active)
same,EC50,Streptococcus,18.5 µM (active)
Cc1ccc(-c2cc([C@H]3[C@@H]4C=CCC[C@@]4(C)C(=O)N3Cc3ccccc3)ccc2F)cc1,EC50,Streptokinase A,4.92 µM (active)
same,AC50,[1],3.16 µM (active)
same,EC50,[4],5.4 µM (active)
same,EC50,Streptococcus,18 µM (active)
CCC/C=C(\CCC)C(NP(=O)(c1ccccc1)c1ccccc1)c1ccccc1 (stereo not drawn),AC50,Cytochrome P450 2D6,39.8 µM (inconclusive)
same,AC50,Cytochrome P450 2C9,25.1 µM (inconclusive)
same,AC50,Cytochrome P450 2C19,20 µM (inconclusive)
same,AC50,Cytochrome P450 1A2,15.8 µM (inconclusive)
NCCCCCc1nnc(SCc2ccccc2Cl)o1,EC50,[2],12.8 µM (active)
same,EC50,[3],14.7 µM (active)
same,AC50,Cytochrome P450 2C9,25.1 µM (inconclusive)
same,EC50,[5],15.7 µM (active)
same,AC50,Cytochrome P450 1A2,28.2 µM (inconclusive)
CN1C(=O)/C(=C/c2cccc(Cl)c2)Sc2ccc(C(=O)NCc3cccnc3)cc21,AC50,[1],1.63 µM (active)
CCN(CC)CCC(=O)Nc1ccc2c(c1)N(C(=O)CN(CC)CC)c1ccccc1CC2,AC50,Cytochrome P450 2D6,15.8 µM (inconclusive)
c1cc(NC2CC2)nc(-c2ccoc2)n1,AC50,Cytochrome P450 2D6,39.8 µM (inconclusive)
C/C(CCN1CCCCc2nc(C)c(C)cc21)=N\O[C@@H](C)c1cc(-c2c(C)cc(C)cc2C)no1,AC50,Cytochrome P450 2D6,3.16 µM (inconclusive)
O=c1c(-c2cc(F)cc(F)c2)nc2cnc(N3CCNCC3)nc2n1CCc1ccccc1,AC50,Cytochrome P450 2D6,20 µM (inconclusive)
same,AC50,Cytochrome P450 1A2,20 µM (inconclusive)
CC(O)(CS(=O)(=O)Cc1ccc(Cl)cc1)C(=O)Nc1cccc(C(F)(F)F)c1 (stereo not drawn),AC50,Cytochrome P450 2D6,15.8 µM (inconclusive)
same,AC50,Cytochrome P450 2C9,8.91 µM (inconclusive)
COc1cccc(S(=O)(=O)NCc2ccc(C(=O)Nc3cccc(Cl)c3)cc2)c1,AC50,[1],4.31 µM (active)
O=C(Nc1ccc2c(c1)OCCO2)NC1(C(F)(F)F)Oc2ccccc2O1,EC50,[2],> 120 µM (not active)
same,EC50,[6],12.5 µM (active)
same,EC50,[3],> 120 µM (not active)
same,EC50,[5],> 120 µM (not active)
O=C(Nc1ccccc1)OCc1cc(-c2ccc(Cl)cc2)on1,AC50,Cytochrome P450 2D6,3.16 µM (inconclusive)
Cc1c(C2(O)CCCCC2)[nH]c2ccc(C(F)(F)F)cc12,AC50,[1],5.63 µM (active)
O=C(CSc1nnc(-c2ccco2)n1-c1ccccc1)NCc1ccco1,AC50,Cytochrome P450 2D6,14.1 µM (inconclusive)
Cc1ccc(COc2ccccc2-c2cc(C(=O)N/N=C/c3cccnc3)[nH]n2)cc1,AC50,[1],0.778 µM (active)
CC1SC(N/N=C/c2cccc([N+](=O)[O-])c2)=NC1=O (stereo not drawn),AC50,[1],2.38 µM (active)
